# Laboratory results taken from ChEMBL document CHEMBL1201862, “PubChem BioAssay data set” (2004).
#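 A five-concentration, 48-hour dose response in 96-well plates underlies each endpoint, interpolated linearly between surrounding concentrations. Here, GI50 denotes the concentration required for 50% inhibition of growth.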 Active and inactive are the calls of the source. No stated cut-off is given here; in the data, active = GI50 up to about 1.1 µM and inactive = higher.
# Columns and labels:
# Test in all cases: NCI anticancer screen, dose series, 48 h
# BT-549 = test system: BT-549
# HCT-116 = test system: HCT-116
# HL-60 = test system: HL-60
# HOP-62 = test system: HOP-62
# HOP-92 = test system: HOP-92
# IGROV-1 = test system: IGROV-1
# LOX IMVI = test system: LOX IMVI
# MDA-MB-435 = test system: MDA-MB-435
# NCI-H23 = test system: NCI-H23
# OVCAR-4 = test system: OVCAR-4
# PC-3 = test system: PC-3
# RPMI-8226 = test system: RPMI-8226
# SF-295 = test system: SF-295
# SK-MEL-2 = test system: SK-MEL-2
# SK-MEL-5 = test system: SK-MEL-5
# SR = test system: SR
# UO-31 = test system: UO-31
# NCI-H460 = test system: NCI-H460
# NCI-H522 = test system: NCI-H522
# SF-268 = test system: SF-268
Compound,GI50 (BT-549),GI50 (HCT-116),GI50 (HL-60),GI50 (HOP-62),GI50 (HOP-92),GI50 (IGROV-1),GI50 (LOX IMVI),GI50 (MDA-MB-435),GI50 (NCI-H23),GI50 (OVCAR-4),GI50 (PC-3),GI50 (RPMI-8226),GI50 (SF-295),GI50 (SK-MEL-2),GI50 (SK-MEL-5),GI50 (SR),GI50 (UO-31),GI50 (NCI-H460),GI50 (NCI-H522),GI50 (SF-268)
CCOc1cc(NC(C)=O)ccc1C(=O)NN1C(=O)C(Oc2ccccc2)C1c1ccc(O)c(OC)c1 (configuration not stated),28.4 µM (inactive),52.4 µM (inactive),19.8 µM (inactive),42.7 µM (inactive),6.04 µM (inactive),34 µM (inactive),29.8 µM (inactive),42.4 µM (inactive),30.8 µM (inactive),31.3 µM (inactive),35.2 µM (inactive),25.5 µM (inactive),66.4 µM (inactive),26.9 µM (inactive),19.1 µM (inactive),25.8 µM (inactive),35 µM (inactive),,,
CCOP(=O)(CN1CCNCCN(CP(=O)(OCC)OCC)CC1)OCC,> 100 µM (inactive),> 100 µM (inactive),,> 100 µM (inactive),> 100 µM (inactive),> 100 µM (inactive),> 100 µM (inactive),> 100 µM (inactive),> 100 µM (inactive),> 100 µM (inactive),> 100 µM (inactive),> 100 µM (inactive),> 100 µM (inactive),> 100 µM (inactive),> 100 µM (inactive),,> 100 µM (inactive),> 100 µM (inactive),> 100 µM (inactive),> 100 µM (inactive)
CCOC(=O)c1c(-c2ccc(Cl)cc2)c(C#N)c(=S)n(C2OC(COC(C)=O)C(OC(C)=O)C(OC(C)=O)C2OC(C)=O)c1C (configuration not stated),,> 100 µM (inactive),> 100 µM (inactive),> 100 µM (inactive),0.125 µM (active),> 100 µM (inactive),> 100 µM (inactive),> 100 µM (inactive),> 100 µM (inactive),90.2 µM (inactive),0.759 µM (active),,> 100 µM (inactive),1.77 µM (inactive),> 100 µM (inactive),> 100 µM (inactive),0.565 µM (active),> 100 µM (inactive),> 100 µM (inactive),> 100 µM (inactive)
COc1cccc(CCn2c(N)c(C(=O)O)c3ccc([N+](=O)[O-])cc3c2=O)c1,25.4 µM (inactive),25.1 µM (inactive),> 100 µM (inactive),37.2 µM (inactive),,36.7 µM (inactive),35.2 µM (inactive),38.3 µM (inactive),19.5 µM (inactive),54 µM (inactive),29.2 µM (inactive),22.9 µM (inactive),38.1 µM (inactive),22.6 µM (inactive),24 µM (inactive),40.1 µM (inactive),31.2 µM (inactive),32.8 µM (inactive),28.3 µM (inactive),37.7 µM (inactive)
Cc1ccc(Nc2sc(C)cc2C#N)c([N+](=O)[O-])c1,> 100 µM (inactive),> 100 µM (inactive),,> 100 µM (inactive),88.9 µM (inactive),,,> 100 µM (inactive),> 100 µM (inactive),> 100 µM (inactive),> 100 µM (inactive),> 100 µM (inactive),> 100 µM (inactive),,,> 100 µM (inactive),> 100 µM (inactive),> 100 µM (inactive),> 100 µM (inactive),> 100 µM (inactive)
CCOC(=O)C1C(=O)CC(O)(OCC)C(C(=O)OCC)C1c1ccc(OC)cc1 (configuration not stated),> 100 µM (inactive),> 100 µM (inactive),> 100 µM (inactive),> 100 µM (inactive),> 100 µM (inactive),> 100 µM (inactive),> 100 µM (inactive),> 100 µM (inactive),> 100 µM (inactive),> 100 µM (inactive),> 100 µM (inactive),,> 100 µM (inactive),> 100 µM (inactive),> 100 µM (inactive),> 100 µM (inactive),> 100 µM (inactive),> 100 µM (inactive),> 100 µM (inactive),> 100 µM (inactive)
O=C(CC(O)(C(F)(F)F)C(F)(F)Cl)CC(O)(C(F)(F)F)C(F)(F)Cl (configuration not stated),,1.67 µM (inactive),2.99 µM (inactive),2.09 µM (inactive),1.71 µM (inactive),2.47 µM (inactive),2.82 µM (inactive),2.19 µM (inactive),1.25 µM (inactive),1.42 µM (inactive),1.64 µM (inactive),7.1 µM (inactive),2.4 µM (inactive),1.59 µM (inactive),1.72 µM (inactive),> 10 µM (inactive),1.44 µM (inactive),1.64 µM (inactive),1.61 µM (inactive),2.31 µM (inactive)
Nc1ccc2c(c1)Cc1ccccc1-2,48.2 µM (inactive),81.5 µM (inactive),36.6 µM (inactive),60 µM (inactive),28.9 µM (inactive),89.9 µM (inactive),80.7 µM (inactive),> 100 µM (inactive),47.6 µM (inactive),> 100 µM (inactive),64.9 µM (inactive),,> 100 µM (inactive),99.8 µM (inactive),66.2 µM (inactive),52.5 µM (inactive),19.5 µM (inactive),69.8 µM (inactive),,
[N-]=[N+]=NC[C@H]1OCO[C@H](CN=[N+]=[N-])[C@@H](OCCOCCCl)[C@@H]1OCCOCCCl,> 100 µM (inactive),> 100 µM (inactive),> 100 µM (inactive),> 100 µM (inactive),,> 100 µM (inactive),> 100 µM (inactive),> 100 µM (inactive),> 100 µM (inactive),> 100 µM (inactive),> 100 µM (inactive),> 100 µM (inactive),> 100 µM (inactive),> 100 µM (inactive),57 µM (inactive),> 100 µM (inactive),30.1 µM (inactive),> 100 µM (inactive),> 100 µM (inactive),> 100 µM (inactive)
Cc1cc2[nH]c3[nH]c(=O)[nH]c(=O)c3c2cc1C,> 100 µM (inactive),> 100 µM (inactive),> 10 µM (inactive),29 µM (inactive),> 100 µM (inactive),> 100 µM (inactive),> 100 µM (inactive),> 100 µM (inactive),> 100 µM (inactive),,,> 100 µM (inactive),> 100 µM (inactive),74.5 µM (inactive),47.1 µM (inactive),27.1 µM (inactive),> 100 µM (inactive),,> 100 µM (inactive),> 100 µM (inactive)
Cc1ncc(CSC(=N)N)n1Cc1ccccc1,> 100 µM (inactive),42.2 µM (inactive),,> 100 µM (inactive),> 100 µM (inactive),> 100 µM (inactive),,30.7 µM (inactive),65.8 µM (inactive),83 µM (inactive),> 100 µM (inactive),27.5 µM (inactive),63.7 µM (inactive),> 100 µM (inactive),82.6 µM (inactive),,> 100 µM (inactive),88.3 µM (inactive),24.7 µM (inactive),> 100 µM (inactive)
Fc1nc(-c2c3ccccc3c3sc4ccccc4n23)nc(N2CCOCCOCCOCCOCC2)n1,87.1 µM (inactive),62.4 µM (inactive),,23.7 µM (inactive),20.9 µM (inactive),> 100 µM (inactive),> 100 µM (inactive),> 100 µM (inactive),> 100 µM (inactive),> 100 µM (inactive),> 100 µM (inactive),> 100 µM (inactive),63 µM (inactive),,> 100 µM (inactive),11.2 µM (inactive),> 100 µM (inactive),> 100 µM (inactive),> 100 µM (inactive),> 100 µM (inactive)
COc1ccc2c(c1)c(=O)c1c(NCCCN(C)CCCNc3ccc4c(=O)n(CCN(C)C)c(=O)n5c6ccc(OC)cc6c(=O)c3c45)ccc3c(=O)n(CCN(C)C)c(=O)n2c31,0.259 µM (active),< 0.01 µM (active),0.0914 µM (active),< 0.036 µM (active),,< 0.01 µM (active),< 0.01 µM (active),< 0.0149 µM (active),< 0.0324 µM (active),< 0.01 µM (active),< 0.0147 µM (active),< 0.01 µM (active),< 0.0169 µM (active),0.514 µM (active),,< 0.01 µM (active),< 0.0181 µM (active),< 0.01 µM (active),< 0.0193 µM (active),0.0998 µM (active)
CCn1c(=O)ccc2ccc(N(CCO)CCO)nc21,> 100 µM (inactive),> 100 µM (inactive),,> 100 µM (inactive),,> 100 µM (inactive),,> 100 µM (inactive),> 100 µM (inactive),> 100 µM (inactive),> 100 µM (inactive),> 100 µM (inactive),> 100 µM (inactive),> 100 µM (inactive),> 100 µM (inactive),> 100 µM (inactive),> 100 µM (inactive),> 100 µM (inactive),> 100 µM (inactive),> 100 µM (inactive)
CC(CNC(N)=O)NC(N)=O (configuration not stated),> 100 µM (inactive),> 100 µM (inactive),> 100 µM (inactive),> 100 µM (inactive),> 100 µM (inactive),> 100 µM (inactive),> 100 µM (inactive),> 100 µM (inactive),> 100 µM (inactive),> 100 µM (inactive),> 100 µM (inactive),> 100 µM (inactive),> 100 µM (inactive),> 100 µM (inactive),> 100 µM (inactive),,> 100 µM (inactive),> 100 µM (inactive),> 100 µM (inactive),> 100 µM (inactive)
